This note sets out measurements from US8518958B2, “Pyrido [2,3-D] pyrimidines and their use as kinase inhibitors” (Forma Therapeutics, Inc., priority 2006, dated 2013).

Experiment [1] relates to HT-29 tumor cells. As to the kind of experiment: Anti-proliferative activity, SRB assay. The settings on record: Homo sapiens, HT-29, 72 h, 72 hours exposure, read-out: CELLULAR IC50 HT-29. The format is cell-based, human. Put shortly:
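IC50 derived from % inhibition relative to DMSO controls, measured by sulforhodamine B binding (OD570) after TCA fixation. Cells (3,000-15,000 per well) were seeded a day ahead, then treated with graded compound concentrations for 72 hours.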
In general terms: In SRB staining, fixed cells bind dye roughly in proportion to their protein.

Experiment [2] has as its target B-Raf delta1-415 (Homo sapiens, UniProt P15056). In words: B-Raf kinase inhibition (MAPH filter plate, 33P-ATP, MEK1 substrate). The settings on record: read-out: Biochemical IC50 B-Raf. Summed up: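 IC50 values come from dilution series (top 10 μM) measured by scintillation counting of 33P-labelled MEK1 retained on H3PO4-washed filters. Reactions ran 1 h at room temperature in pH 7.0 Mops buffer with MgCl2, MnCl2 and DTT, using 12.5 μCi/ml [γ-33P]ATP and B-Raf delta1-415 titrated to 50% turnover.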

Experiment [3] addresses C-Raf Raf-1 (truncated), active (Homo sapiens, UniProt P04049, Y340D/Y341D). In words: C-Raf kinase inhibition (MAPH assay / IMAP assay). The settings on record: read-out: Biochemical IC50 C-Raf. Summed up: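 Truncated active human C-Raf (Y340D/Y341D), room temperature, top inhibitor concentration 10 μM in a dilution series for IC50. MAPH: 57.8 μM myelin basic protein with [γ-33P]ATP, kinase at 10% ATP turnover, 1 h, filter-bound radioactivity. IMAP: 400 nM fluorescent peptide, 20 mM Hepes pH 7.5 with 10 mM MnCl2, kinase at 50% turnover, fluorescence polarization.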

By IC50 is commonly meant the concentration that inhibits the measured activity by half.

Chain of C-Raf Raf-1 (truncated), active (P04049 306-648 Y340D/Y341D): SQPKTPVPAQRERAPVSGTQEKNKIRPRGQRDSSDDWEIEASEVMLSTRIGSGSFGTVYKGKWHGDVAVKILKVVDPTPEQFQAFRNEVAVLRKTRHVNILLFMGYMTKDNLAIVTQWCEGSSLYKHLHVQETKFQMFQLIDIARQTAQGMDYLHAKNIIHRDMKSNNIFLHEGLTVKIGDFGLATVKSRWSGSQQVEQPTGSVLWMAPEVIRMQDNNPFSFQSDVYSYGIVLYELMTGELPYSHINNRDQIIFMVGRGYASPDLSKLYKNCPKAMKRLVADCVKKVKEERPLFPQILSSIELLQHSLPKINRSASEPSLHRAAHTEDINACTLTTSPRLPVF
Chain of B-Raf delta1-415 (P15056 416-766): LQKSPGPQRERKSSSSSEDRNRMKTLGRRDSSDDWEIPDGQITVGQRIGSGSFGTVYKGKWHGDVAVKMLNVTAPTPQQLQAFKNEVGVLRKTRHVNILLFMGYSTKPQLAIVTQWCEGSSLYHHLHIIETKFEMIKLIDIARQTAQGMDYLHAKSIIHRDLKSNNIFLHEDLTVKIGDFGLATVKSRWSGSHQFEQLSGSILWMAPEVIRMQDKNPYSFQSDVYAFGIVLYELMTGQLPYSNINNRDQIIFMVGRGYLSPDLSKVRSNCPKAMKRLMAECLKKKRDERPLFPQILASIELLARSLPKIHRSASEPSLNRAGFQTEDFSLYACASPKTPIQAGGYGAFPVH

As for `COc1cccc(Nc2ncc3cc(-c4c(Cl)cccc4Cl)c(=O)n(OCCCCN)c3n2)c1` [Compound 41, 8-(4-Aminobutoxy)-6-(2,6-dichlorophenyl)-2-(3-methoxyphenylamino)-pyrido[2,3-d]pyrimidin-7-one], the IC50 in experiment [1] is below 1000 nM; in experiment [2], below 500 nM; in experiment [3], below 100 nM.
In the same order, the values of `COn1c(=O)c(-c2ccccc2)cc2cnc(Nc3cccc(CO)c3)nc21` [Compound 43, 2-(3-Hydroxymethylphenylamino)-8-methoxy-6-phenyl-pyrido[2,3-d]pyrimidin-7-one] are below 10000 nM, below 5000 nM and below 100 nM.
As for `COc1ccc(OC)c(-c2cc3cnc(Nc4cccc(CO)c4)nc3n(OC)c2=O)c1` [Compound 44, 6-(2,5-Dimethoxyphenyl)-2-(3-hydroxymethylphenylamino)-8-methoxy-pyrido[2,3-d]pyrimidin-7-one], the IC50 was above 10000 nM in experiment [1], below 5000 nM in experiment [2] and below 100 nM in experiment [3].
In the same order, the values of `COn1c(=O)c(-c2c(Cl)cccc2Cl)cc2cnc(Nc3cc(CO)ccc3C)nc21` [Compound 45, 6-(2,6-Dichlorophenyl)-2-((2-methyl-5-hydroxymethylphenyl)-amino)-8-methoxy-pyrido[2,3-d]pyrimidin-7-one] are below 10000 nM, below 500 nM and below 100 nM.
In the same order, the values of `COn1c(=O)c(-c2c(Cl)cccc2Cl)cc2cnc(N)nc21` [Compound 46, 2-Amino-6-(2,6-dichlorophenyl)-8-methoxy-pyrido[2,3-d]pyrimidin-7-one] are below 10000 nM, below 500 nM and below 100 nM.
In the same order, the values of `COCCNc1ncc2cc(-c3c(Cl)cccc3Cl)c(=O)n(OC)c2n1` [Compound 48, 6-(2,6-Dichlorophenyl)-8-methoxy-2-methoxyethylamino-pyrido[2,3-d]pyrimidin-7-one] are above 10000 nM, below 500 nM and below 100 nM.
With `O=c1c(-c2ccccc2Cl)cc2cnc(Nc3ccccc3)nc2n1OCC1CC1` [Compound 49, 6-(2-Chlorophenyl)-8-cyclopropylmethoxy-2-phenylamino-pyrido[2,3-d]pyrimidin-7-one], the IC50 in experiment [1] is below 10000 nM; in experiment [2], above 1000 nM; in experiment [3], below 100 nM.
In the same order, the values of `COc1ccccc1-c1cc2cnc(Nc3ccc(OCCN(C)C)cc3)nc2n(OC)c1=O` [Compound 50, 2-(4-(2-Dimethylaminoethoxy)-6-(2-methoxyphenyl)-phenylamino)-8-methoxy-pyrido[2,3-d]pyrimidin-7-one] are below 10000 nM, above 1000 nM and below 1000 nM.
In the same order, the values of `CCOn1c(=O)c(-c2c(F)cccc2Cl)cc2cnc(Nc3ccc(N4CCN(C)CC4)cc3)nc21` [Compound 51, 6-(2-Chloro-6-fluorophenyl)-8-ethoxy-2-(4-(4-methylpiperazino)-phenylamino)-pyrido[2,3-d]pyrimidin-7-one] are below 1000 nM, below 100 nM and below 100 nM.
The corresponding values for `CN1CCN(c2ccc(Nc3ncc4cc(-c5c(F)cccc5Cl)c(=O)n(OCC5CC5)c4n3)cc2)CC1` [Compound 52, 6-(2-Chloro-6-fluorophenyl)-8-cyclopropylmethoxy-2-(4-(4-methylpiperazino)-phenylamino)-pyrido[2,3-d]pyrimidin-7-one] are below 1000 nM, below 100 nM and below 100 nM.
In the case of `COn1c(=O)c(-c2c(F)cccc2C(F)(F)F)cc2cnc(Nc3ccc(N4CCN(C)CC4)cc3)nc21` [Compound 53, 6-(2-Fluoro-6-trifluoromethyl-phenyl)-8-methoxy-2-(4-(4-methylpiperazino)-phenylamino)-pyrido[2,3-d]pyrimidin-7-one], the IC50 in experiment [1], in experiment [2] and in experiment [3] was below 1000 nM in each case.
Turning to `COn1c(=O)c(-c2c(Cl)cccc2Cl)cc2cnc(Nc3cc(C(=O)O)n(C)c3)nc21` [Compound 54, 2-(5-Carboxy-1-methyl-pyrrol-3-yl)-amino-6-(2,6-dichlorophenyl)-8-methoxy-pyrido[2,3-d]pyrimidin-7-one], the IC50 in experiment [1] is below 10000 nM; in experiment [2], below 500 nM; in experiment [3], below 100 nM.
`NCCCOn1c(=O)c(-c2c(Cl)cccc2Cl)cc2cnc(Nc3ccccc3)nc21` [Compound 55, 8-(3-Aminopropyl)oxy-6-(2,6-dichlorophenyl)-2-phenylamino-pyrido[2,3-d]pyrimidin-7-one]: the IC50 in experiment [1] is below 1000 nM; in experiment [2] it was below 500 nM; in experiment [3], below 500 nM.
In the case of `NCCCCCOn1c(=O)c(-c2c(Cl)cccc2Cl)cc2cnc(Nc3ccccc3)nc21` [Compound 56, 8-(5-Aminopentyl)oxy-6-(2,6-dichlorophenyl)-2-phenylamino-pyrido[2,3-d]pyrimidin-7-one], the IC50 was below 1000 nM in experiment [1], below 500 nM in experiment [2] and below 100 nM in experiment [3].
In the same order, the values of `CC(=O)NCCCOn1c(=O)c(-c2c(Cl)cccc2Cl)cc2cnc(Nc3ccccc3)nc21` [Compound 57, 8-(3-Acetylaminopropyl)oxy-6-(2,6-dichlorophenyl)-2-phenylamino-pyrido[2,3-d]pyrimidin-7-one] are below 1000 nM, below 1000 nM and below 100 nM.
In the same order, the values of `NCCOCCOn1c(=O)c(-c2c(Cl)cccc2Cl)cc2cnc(Nc3ccccc3)nc21` [Compound 58, 8-(2-(2-Aminoethyloxy)ethyl)oxy-6-(2,6-dichlorophenyl)-2-phenylamino-pyrido[2,3-d]pyrimidin-7-one] are below 1000 nM, below 500 nM and below 500 nM.
For `COn1c(=O)c(-c2cc(NC(C)=O)ccc2Cl)cc2cnc(Nc3ccccc3)nc21` [Compound 59], the IC50 in experiment [1] was below 10000 nM; in experiment [2], below 500 nM; in experiment [3] it was below 100 nM.
The corresponding values for `COc1ccc(OC)c(-c2cc3cnc(Nc4ccccc4)nc3n(OC)c2=O)c1` [Compound 60] are below 10000 nM, below 10000 nM and below 500 nM.
In the same order, the values of `COn1c(=O)c(C(=O)Nc2ccccc2)cc2cnc(Nc3ccccc3)nc21` [Compound 61, 8-Methoxy-2-phenylamino-6-phenylaminocarbonyl-pyrido[2,3-d]pyrimidin-7-one] are below 10000 nM, above 10000 nM and above 10000 nM.
The corresponding values for `COn1c(=O)c(-c2cccc(NC(C)=O)c2)cc2cnc(Nc3ccccc3)nc21` [Compound 62] are below 10000 nM, below 10000 nM and below 100 nM.
For `CC(C)(C)On1c(=O)c(-c2ccccc2Cl)cc2cnc(Nc3ccccc3)nc21` [Compound 63, 6-(2-Chlorophenyl)-8-(1,1-dimethyl)ethyloxy-2-phenylamino-pyrido[2,3-d]pyrimidin-7-one], the IC50 in experiment [1] was above 10000 nM; in experiment [2] it was below 10000 nM; in experiment [3] it was below 10000 nM.
With `COn1c(=O)c(-c2ccc(Cl)c(Cl)c2)cc2cnc(Nc3cccc(S(N)(=O)=O)c3)nc21` [Compound 64, 2-(3-Aminosulfonlyphenyl)-amino-6-(3,4-dichlorophenyl)-8-methoxy-pyrido[2,3-d]pyrimidin-7-one], the IC50 in experiment [1] is below 10000 nM; in experiment [2], below 500 nM; in experiment [3], below 500 nM.
Regarding `COn1c(=O)c(-c2c(Cl)cccc2Cl)cc2cnc(Nc3cc(C(=O)NCCN(C)C)n(C)c3)nc21` [Compound 67, 6-(2,6-Dichlorophenyl)-2-(5-(2-dimethylaminoethyl)aminocarbonyl-1-methyl-pyrrol-3-yl)-amino-8-methoxy-pyrido[2,3-d]pyrimidin-7-one], the figures for the IC50 in experiment [1], in experiment [2] and in experiment [3] were below 1000 nM, below 100 nM and below 100 nM, respectively.
Consider `COCCOn1c(=O)c(-c2c(Cl)cccc2Cl)cc2cnc(Nc3cccc(OC)c3)nc21` [Compound 68, 6-(2,6-Dichlorophenyl)-8-(2-methoxyethyl)oxy-2-(3-methoxyphenyl)amino-pyrido[2,3-d]pyrimidin-7-one], for which the IC50 in experiment [1] was below 1000 nM; in experiment [2], below 500 nM; in experiment [3], below 100 nM.
In the same order, the values of `COc1cccc(Nc2ncc3cc(-c4c(C)cccc4C)c(=O)n(OC)c3n2)c1` [Compound 69, 6-(2,6-Dimethylphenyl)-8-methoxy-2-(3-methoxyphenyl)-amino-pyrido[2,3-d]pyrimidin-7-one] are below 1000 nM, below 500 nM and below 100 nM.
In the same order, the values of `COc1cccc(Nc2ncc3cc(-c4c(Cl)cccc4Cl)c(=O)n(OCCN)c3n2)c1` [Compound 70, 8-(2-Aminoethyl)oxy-6-(2,6-dichlorophenyl)-2-(3-methoxyphenyl)amino-pyrido[2,3-d]pyrimidin-7-one] are below 1000 nM, below 500 nM and below 100 nM.
The corresponding values for `COc1cccc(Nc2ncc3cc(-c4c(Cl)cccc4Cl)c(=O)n(OCCCN)c3n2)c1` [Compound 71, 8-(3-Aminopropyl)oxy-6-(2,6-dichlorophenyl)-2-(3-methoxyphenyl)amino-pyrido[2,3-d]pyrimidin-7-one] are below 1000 nM, below 100 nM and below 100 nM.
